Test results reported in US20080057071A1, “Use Of Hedgehog Pathway Inhibitors In Small-Cell Lung Cancer” (priority 2003, published 2008).

Experiments:
Type in all cases: cell-based, human
NCI-H249 SCLC cells [1] = experiment: Cell growth of NCI-H249 SCLC cells (MTT assay); conditions: for cell growth after compound treatment: NCI-H249 SCLC cells, 5 days, FIG. 3b
Protocol: (§1) MTT assays were performed as described (Sriuranpong (2002), supra).

NCI-H157 NSCLC cells = experiment: Cell growth of NCI-H157 NSCLC cells (MTT assay); conditions: 5 days, FIG. 3c
Protocol: as §1

Ptch mRNA = Ptch mRNA expression by northern blot analysis; conditions: NCI-H249 SCLC cells, FIG. 3g
NCI-H249 SCLC cells [2] = experiment: Cleaved PARP expression (apoptosis) by immunoblot; conditions: 5 μM, 72 h, FIG. 3f
Protocol: Whole-cell lysates were sonicated in 2% SDS/50 mM TrisHCl, pH 8. […] Anti-cleaved PARP was obtained from Promega.

NCI-H249 SCLC cells [3] = experiment: Cell cycle analysis in NCI-H249 cells; conditions: unsynchronized NCI-H249 SCLC cells; 5 μM; 72 h; FIG. 3e
NCI-H249 SCLC cells [4] = experiment: Soft agar clonogenicity of NCI-H249 SCLC cells; conditions: FIG. 4a, b
[5] = system: BMP4, nestin and ASH-1 transcripts; experiment: RT-PCR analysis of transcripts in NCI-H249 SCLC cells; conditions: 48 h, FIG. 3h
Protocol: Total cellular RNA was treated with DNAse, reverse transcribed, and amplified for 31 cycles at an annealing temperature of 55° C. Primers used were: […]

SMILES | cell growth after compound treatment (NCI-H249 SCLC cells [1]) | cell growth after compound treatment (NCI-H157 NSCLC cells) | Ptch mRNA expression (Ptch mRNA) | apoptosis (cleaved PARP) (NCI-H249 SCLC cells [2]) | growth inhibition by cyclopamine in cells stably expressing Flag-tagged GLI-1 (NCI-H249 SCLC cells [1]; NCI-H249 SCLC cells stably transfected with Flag-Gli1, MTT, FIG. 3d) | growth inhibition by cyclopamine in cells expressing GLI-1 mutant lacking the zinc finger DNA-binding domain (NCI-H249 SCLC cells [1]; NCI-H249 SCLC cells stably transfected with Flag-Gli1ZFD, MTT, FIG. 3d) | cell cycle effect (NCI-H249 SCLC cells [3]) | soft agar clonogenicity effect in cells overexpressing GLI-1 (NCI-H249 SCLC cells [4]; NCI-H249 SCLC cells stably transfected with Flag-Gli1, cyclopamine 5 μM) | soft agar clonogenicity (NCI-H249 SCLC cells [4]; NCI-H249 SCLC cells) | BMP4 expression [5] | human ASH-1 expression [5] | nestin expression [5]
C[C@H]1CC[C@]2(NC1)O[C@H]1C[C@H]3[C@@H]4CC[C@H]5C[C@@H](O)CC[C@]5(C)[C@H]4CC[C@]3(C)[C@H]1[C@@H]2C [tomatidine] | no effect | None of KAAD-cyclopamine, cyclopamine or tomatidine was able to affect growth |  |  |  |  |  |  |  |  |  | 
CC1=C2C[C@H]3[C@@H](CC=C4C[C@@H](O)CC[C@@]43C)[C@@H]2CC[C@]12O[C@@H]1C[C@H](C)CN[C@H]1[C@H]2C [cyclopamine] |  |  | downregulation | increase in cleaved PARP | protected NCI-H249 SCLC cells from growth inhibition | had no effect | arrest of the cell cycle in Go/G1 | reversed | reduced soft agar clonogenicity | inhibited expression | inhibited expression | inhibited expression
CC1=C2C[C@H]3[C@@H](CC=C4CC(=O)CC[C@@]43C)[C@@H]2CC[C@]12O[C@@H]1C[C@H](C)CN(CCNC(=O)CCCCCNC(=O)CCc3ccccc3)[C@H]1[C@H]2C [KAAD-cyclopamine] | significant growth inhibition | None of KAAD-cyclopamine, cyclopamine or tomatidine was able to affect growth |  |  |  |  |  |  |  |  |  | 
